The structures appear in SMILES notation.

One test has as its target T1, PDGFRalpha(V561D) (Homo sapiens, UniProt P16234, V561D).
T1 construct: recombinant human PDGFRalpha, amino acids 550end containing the V561 D mutation; 6His (N)
The experiment in a line: PDGFRalpha(V561D) assay. Type of test: biochemical. Conditions: recombinant human PDGFRalpha aa 550-end, 200 μM ATP, 1.4E-06 means 1.4×10^−6, read-out: Inhibition (IC50) of PDGFRα (V561D). The protocol:
(§1) PDGFRalpha(V561D) (N-terminal 6His-tagged, recombinant human PDGFRalpha, amino acids 550end containing the V561 D mutation) is incubated with 8 mM MOPS pH 7.0, 0.2 mM EDTA, 250 μM GGMEDIYEFMGGKKK, 10 mM MgAcetate and [gamma-33P-ATP] (specific activity approx. 500 cpm/pmol, concentration 200 μM). The reaction is initiated by the addition of the MgATP mix. After incubation for 40 minutes at room temperature, the reaction is stopped by the addition of 3% phosphoric acid solution. 10 μL of the reaction is then spotted onto a P30 filtermat and washed three times for 5 minutes in 75 mM phosphoric acid and once in methanol prior to drying and scintillation counting.

The target of the next test is T2, c-Kit(V654A) (Homo sapiens, UniProt P10721, V654A).
T2 construct: amino acids 544-end containing the V654A mutation; GST (N)
The experiment in a line: c-Kit(V654A) assay. Type of test: biochemical. Conditions: recombinant human c-Kit aa 544-end, 200 μM ATP, 1.4E-06 means 1.4×10^−6, read-out: Inhibition (IC50) of c-KIT (V654A). As for the experimental part: as §1, with “c-Kit(V654A)” for “PDGFRalpha(V561D)”, “GST-tagged,” for “6His-tagged,”, “c-Kit,” for “PDGFRalpha,”, “544-end” for “550end”, “V654A” for “V561 D”

T2 sequence (P10721 544-976 V654A): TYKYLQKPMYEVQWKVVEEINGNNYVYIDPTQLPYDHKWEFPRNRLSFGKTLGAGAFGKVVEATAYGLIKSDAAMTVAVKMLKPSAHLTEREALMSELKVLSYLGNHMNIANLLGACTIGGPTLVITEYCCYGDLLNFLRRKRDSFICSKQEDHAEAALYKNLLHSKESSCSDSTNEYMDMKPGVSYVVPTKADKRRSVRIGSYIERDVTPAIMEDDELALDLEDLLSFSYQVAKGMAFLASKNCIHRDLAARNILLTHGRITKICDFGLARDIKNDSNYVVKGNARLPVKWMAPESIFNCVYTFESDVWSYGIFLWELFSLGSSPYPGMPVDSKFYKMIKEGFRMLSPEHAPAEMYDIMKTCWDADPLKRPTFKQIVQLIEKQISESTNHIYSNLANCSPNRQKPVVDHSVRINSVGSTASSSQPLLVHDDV
T1 sequence (P16234 550-1089 V561D): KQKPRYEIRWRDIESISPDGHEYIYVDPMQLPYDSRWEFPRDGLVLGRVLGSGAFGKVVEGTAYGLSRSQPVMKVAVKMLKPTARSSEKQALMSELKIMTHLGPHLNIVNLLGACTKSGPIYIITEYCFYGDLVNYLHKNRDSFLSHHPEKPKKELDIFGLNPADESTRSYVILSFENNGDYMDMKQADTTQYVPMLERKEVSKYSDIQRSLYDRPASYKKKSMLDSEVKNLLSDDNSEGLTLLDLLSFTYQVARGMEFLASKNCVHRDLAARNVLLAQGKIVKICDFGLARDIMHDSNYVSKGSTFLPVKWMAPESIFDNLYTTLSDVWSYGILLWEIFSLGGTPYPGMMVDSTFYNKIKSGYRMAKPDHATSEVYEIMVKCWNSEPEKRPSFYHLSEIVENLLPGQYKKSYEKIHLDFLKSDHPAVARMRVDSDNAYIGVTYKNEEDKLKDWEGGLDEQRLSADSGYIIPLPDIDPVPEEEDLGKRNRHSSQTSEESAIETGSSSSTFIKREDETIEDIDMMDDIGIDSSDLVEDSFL

For `CN1CCN(C(=O)c2ccc(-n3cc(-c4cc5cc(F)ccc5[nH]c4=O)nn3)cc2)CC1` [A56, 6-fluoro-3-{1-[4-(4-methyl-piperazine-1-carbonyl)-phenyl]-1H-[1,2,3]triazol-4-yl}-1H-quinolin-2-one], the values for the IC50 at PDGFRalpha(V561D) and at c-Kit(V654A) were 5 nM and 7 nM, respectively.
Turning to `CN1CCN(C(=O)c2ccc(-n3cc(-c4cc5cc(F)ccc5[nH]c4=O)cn3)cc2)CC1` [A296, 6-fluoro-3-{1-[4-(4-methyl-piperazine-1-carbonyl)-phenyl]-1H-pyrazol-4-yl}-1H-quinolin-2-one], the IC50 at PDGFRalpha(V561D) came to 14 nM; at c-Kit(V654A), 38 nM.
Turning to `O=C(c1ccc(-n2cc(-c3cc4cc(F)ccc4[nH]c3=O)nn2)cc1)N1CC[C@@H](F)C1` [A269, 6-fluoro-3-{1-[4-((R)-3-fluoro-pyrrolidine-1-carbonyl)-phenyl]-1H-[1,2,3]triazol-4-yl}-1H-quinolin-2-one], the IC50 stood at 1.5 nM on PDGFRalpha(V561D) and 31 nM at c-Kit(V654A).
As to `CN1CCCN(c2ccc(-n3cc(-c4cc5cc(F)cnc5[nH]c4=O)nn3)cc2)CC1` [A155, 6-fluoro-3-{1-[4-(4-methyl-[1,4]diazepan-1-yl)-phenyl]-1H-[1,2,3]triazol-4-yl}-1H-[1,8]naphthyridin-2-one], the half-maximal inhibitory concentration (IC50) came to 61 nM at PDGFRalpha(V561D) and 81 nM on c-Kit(V654A).
Take `CC(C)(O)c1ccc(-n2cc(-c3cc4ccccc4[nH]c3=O)nn2)cc1` [A36, 3-{1-[4-(1-hydroxy-1-methyl-ethyl)-phenyl]-1H-[1,2,3]triazol-4-yl}-1H-quinolin-2-one]: the IC50 at PDGFRalpha(V561D) was 17 nM; on c-Kit(V654A), 29 nM.
`O=C(c1ccc(-n2cc(-c3cc4c(F)cccc4[nH]c3=O)nn2)cc1)N1CCOCC1` [A48, 5-fluoro-3-{1-[4-(morpholine-4-carbonyl)-phenyl]-1H-[1,2,3]triazol-4-yl}-1H-quinolin-2-one]: the half-maximal inhibitory concentration (IC50) at PDGFRalpha(V561D) was found to be 19 nM; on c-Kit(V654A) it was 17 nM.
Taken in the same sequence, the figures for `O=c1[nH]c2ncc(F)cc2cc1-c1cn(-c2ccc(N3CCCNCC3)cc2)nn1` [A124, 3-[1-(4-[1,4]diazepan-1-yl-phenyl)-1H-[1,2,3]triazol-4-yl]-6-fluoro-1H-[1,8]naphthyridin-2-one] were 9 nM and 66 nM.
For the compound `CC(=O)N1CCN(CCOc2ccc(-n3cc(-c4cc5cc(F)c(F)cc5[nH]c4=O)nn3)cc2)CC1` [A101, 3-(1-{4-[2-(4-acetyl-piperazin-1-yl)-ethoxy]-phenyl}-1H-[1,2,3]triazol-4-yl)-6,7-difluoro-1H-quinolin-2-one], the values for the IC50 on PDGFRalpha(V561D) and at c-Kit(V654A) were 290 nM and 33 nM, respectively.
Consider `CN(C)[C@H]1[C@@H]2CN(C(=O)c3ccc(-n4cc(-c5cc6cc(F)ccc6[nH]c5=O)nn4)cc3)C[C@@H]21` [A330, 3-{1-[4-(6-dimethylamino-3-aza-bicyclo[3.1.0]hexane-3-carbonyl)-phenyl]-1H-[1,2,3]triazol-4-yl}-6-fluoro-1H-quinolin-2-one], for which the IC50 came to 21 nM at PDGFRalpha(V561D) and 48 nM at c-Kit(V654A).
On to `CN1CCN(C(=O)c2cccc(-n3cc(-c4cc5ccccc5[nH]c4=O)nn3)c2)CC1` [A79, 3-{1-[3-(4-methyl-piperazine-1-carbonyl)-phenyl]-1H-[1,2,3]triazol-4-yl}-1H-quinolin-2-one], for which the 50% inhibitory concentration (IC50) at PDGFRalpha(V561D) was 31 nM; on c-Kit(V654A), 33 nM.
With `CCN(CC)[C@H]1CCCN(C(=O)c2ccc(-n3cc(-c4cc5cc(F)ccc5[nH]c4=O)nn3)cc2)C1` [A337, 3-{1-[4-((S)-3-diethylamino-piperidine-1-carbonyl)-phenyl]-1H-[1,2,3]triazol-4-yl}-6-fluoro-1H-quinolin-2-one], the IC50 on PDGFRalpha(V561D) came to 230 nM; at c-Kit(V654A), 75 nM.
Turning to `CN1CCC(Cc2ccc(-n3cc(-c4cc5cc(F)ccc5[nH]c4=O)nn3)cc2)CC1` [A371, 6-fluoro-3-{1-[4-(1-methyl-piperidin-4-ylmethyl)-phenyl]-1H-[1,2,3]triazol-4-yl}-1H-quinolin-2-one], the values for the IC50 at PDGFRalpha(V561D) and at c-Kit(V654A) were 11 nM and 34 nM, respectively.
Regarding `Cc1ccc2cc(-c3cn(-c4ccc(C(=O)N5CCOCC5)cc4)nn3)c(=O)[nH]c2n1` [A30, 7-methyl-3-{1-[4-(morpholine-4-carbonyl)-phenyl]-1H-[1,2,3]triazol-4-yl}-1H-[1,8]naphthyridin-2-one], the IC50 worked out at 150 nM at PDGFRalpha(V561D) and 2200 nM at c-Kit(V654A).
For the compound `CO[C@@H]1C[C@@H](CO)N(C(=O)c2ccc(-n3cc(-c4cc5cc(Cl)ccc5[nH]c4=O)nn3)cc2)C1` [A248, 6-chloro-3-{1-[4-((2S,4R)-2-hydroxymethyl-4-methoxy-pyrrolidine-1-carbonyl)-phenyl]-1H-[1,2,3]triazol-4-yl}-1H-quinolin-2-one], the IC50 came out at 45 nM on PDGFRalpha(V561D) and 35 nM at c-Kit(V654A).
For `O=C(c1ccc(-n2cc(-c3cc4cc(F)ccc4[nH]c3=O)nn2)cc1)N1CCNCC1` [A53, 6-fluoro-3-{1-[4-(piperazine-1-carbonyl)-phenyl]-1H-[1,2,3]triazol-4-yl}-1H-quinolin-2-one], the half-inhibitory concentration (IC50) stood at 9 nM at PDGFRalpha(V561D) and 11 nM at c-Kit(V654A).
For the compound `O=C(c1ccc(-n2cc(-c3cc4cc(F)ccc4[nH]c3=O)nn2)cc1)N1C[C@H](O)C[C@H]1CO` [A227, 6-fluoro-3-{1-[4-((2S,4R)-4-hydroxy-2-hydroxymethyl-pyrrolidine-1-carbonyl)-phenyl]-1H-[1,2,3]triazol-4-yl}-1H-quinolin-2-one], the IC50 at PDGFRalpha(V561D) turned out to be 140 nM; at c-Kit(V654A), 92 nM.
As to `Cc1cc(-n2cc(-c3cc4ccccc4[nH]c3=O)nn2)ccc1C(=O)N1CCOCC1` [A40, 3-{1-[3-methyl-4-(morpholine-4-carbonyl)-phenyl]-1H-[1,2,3]triazol-4-yl}-1H-quinolin-2-one], the concentration for half-maximal inhibition (IC50) was 7 nM at PDGFRalpha(V561D) and 26 nM on c-Kit(V654A).
Taken in the same sequence, the figures for `COCCO[C@H]1CCN(C(=O)c2ccc(-n3cc(-c4cc5cc(Cl)ccc5[nH]c4=O)nn3)cc2)C1` [A259, 6-chloro-3-(1-{4-[(S)-3-(2-methoxy-ethoxy)-pyrrolidine-1-carbonyl]-phenyl}-1H-[1,2,3]triazol-4-yl)-1H-quinolin-2-one] were 8.4 nM and 57 nM.
Taken in the same sequence, the figures for `O=C(c1ccc(-n2cc(-c3cc4cc(F)ccc4[nH]c3=O)nn2)cc1)N1CC[C@H](O)C1` [A182, 6-fluoro-3-{1-[4-((S)-3-hydroxy-pyrrolidine-1-carbonyl)-phenyl]-1H-[1,2,3]triazol-4-yl}-1H-quinolin-2-one] were 1.2 nM and 13 nM.
With `O=C(c1ccc(-n2cc(-c3cc4cc(F)ccc4[nH]c3=O)nn2)cc1)N1CCC(N2CCC(O)CC2)C1` (stereo not shown) [A208, 6-fluoro-3-(1-{4-[3-(4-hydroxy-piperidin-1-yl)-pyrrolidine-1-carbonyl]-phenyl}-1H-[1,2,3]triazol-4-yl)-1H-quinolin-2-one], the 50% inhibitory concentration (IC50) is 180 nM on PDGFRalpha(V561D) and 18 nM at c-Kit(V654A).
Regarding `O=C(NCCO)c1ccc(-n2cc(-c3cc4cccnc4[nH]c3=O)nn2)cc1` [A8, N-(2-hydroxy-ethyl)-4-[4-(2-oxo-1,2-dihydro-[1,8]naphthyridin-3-yl)-[1,2,3]triazol-1-yl]-benzamide], the results for the IC50 at PDGFRalpha(V561D) and at c-Kit(V654A) were 14 nM and 170 nM, respectively.
The corresponding values for `CN(C)CCc1ccc(-n2cc(-c3cc4cc(F)c(F)cc4[nH]c3=O)nn2)cc1` [A115, 3-{1-[4-(2-dimethylamino-ethyl)-phenyl]-1H-[1,2,3]triazol-4-yl}-6,7-difluoro-1H-quinolin-2-one] are 1400 nM and 180 nM.
Consider `O=C(c1ccc(-n2cc(-c3cc4cc(F)ccc4[nH]c3=O)nn2)cc1)C1CCNCC1` [A132, 6-fluoro-3-{1-[4-(piperidine-4-carbonyl)-phenyl]-1H-[1,2,3]triazol-4-yl}-1H-quinolin-2-one], for which the values for the half-maximal inhibitory concentration (IC50) on PDGFRalpha(V561D) and on c-Kit(V654A) were 0.8 nM and 7.5 nM, respectively.
Regarding `CN1CCN(C(=O)c2ccc(-n3cc(-c4cc5cc(F)ccc5[nH]c4=O)nn3)cc2)CCC1=O` [A110, 6-fluoro-3-{1-[4-(4-methyl-5-oxo-[1,4]diazepane-1-carbonyl)-phenyl]-1H-[1,2,3]triazol-4-yl}-1H-quinolin-2-one], the IC50 on PDGFRalpha(V561D) stood at 28 nM; at c-Kit(V654A) it was 39 nM.
Consider `O=C1COCCN1c1ccc(-n2cc(-c3cc4ccncc4[nH]c3=O)nn2)cc1` [A49, 3-{1-[4-(3-oxo-morpholin-4-yl)-phenyl]-1H-[1,2,3]triazol-4-yl}-1H-[1,7]naphthyridin-2-one], for which the IC50 at PDGFRalpha(V561D) is 42 nM; on c-Kit(V654A) it was 150 nM.
Take `O=C(c1ccc(-n2cc(-c3cc4cc(F)ccc4[nH]c3=O)nn2)cc1)N1CCOC[C@@H]1CO` [A216, 6-fluoro-3-{1-[4-((S)-3-hydroxymethyl-morpholine-4-carbonyl)-phenyl]-1H-[1,2,3]triazol-4-yl}-1H-quinolin-2-one]: the 50% inhibitory concentration (IC50) came out at 29 nM on PDGFRalpha(V561D) and 52 nM at c-Kit(V654A).

In general, IC50 refers to the midpoint of a concentration-inhibition curve.

The record behind these values is patent US11939314B2, “Quinolin-2-one derivatives” (MERCK PATENT GMBH, priority 2016, dated 2024).
